Paper PMC9177418, “Global analysis of biosynthetic gene clusters reveals conserved and unique natural products in entomopathogenic nematode-symbiotic bacteria” (Nature Chemistry, 2022)

Assays:
Format in all cases: biochemical
[1] = target: T1, yeast 20S proteasome β2 subunit (trypsin-like) (Saccharomyces cerevisiae, UniProt P25043); assay: X-ray crystal structure ([…] soak; ligand map diffuse at β[…]); fluorogenic inhibition assay with purified yCP
T1 construct: gene PUP1; purified yeast 20S proteasome core particle (yCP); with other subunits of the yeast 20S proteasome core particle (α1–7β1–7β1–7α1–7)
T1 sequence (P25043 30-261): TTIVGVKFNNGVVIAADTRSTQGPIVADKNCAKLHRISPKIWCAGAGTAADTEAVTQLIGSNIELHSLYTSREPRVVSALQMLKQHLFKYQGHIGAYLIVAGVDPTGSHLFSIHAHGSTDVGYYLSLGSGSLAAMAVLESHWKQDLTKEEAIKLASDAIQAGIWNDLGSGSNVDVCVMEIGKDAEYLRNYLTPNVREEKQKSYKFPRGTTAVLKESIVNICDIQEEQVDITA

[2] = target: T2, yeast 20S proteasome β5 subunit (chymotrypsin-like) (Saccharomyces cerevisiae, UniProt P30656); assay: X-ray crystal structure at […] Å; fluorogenic Suc-Leu-Leu-Val-Tyr-AMC inhibition assay with purified yCP
T2 construct: gene PRE2; purified yeast 20S proteasome core particle (yCP); with other subunits of the yeast 20S proteasome core particle (α1–7β1–7β1–7α1–7)
T2 sequence (P30656 76-287): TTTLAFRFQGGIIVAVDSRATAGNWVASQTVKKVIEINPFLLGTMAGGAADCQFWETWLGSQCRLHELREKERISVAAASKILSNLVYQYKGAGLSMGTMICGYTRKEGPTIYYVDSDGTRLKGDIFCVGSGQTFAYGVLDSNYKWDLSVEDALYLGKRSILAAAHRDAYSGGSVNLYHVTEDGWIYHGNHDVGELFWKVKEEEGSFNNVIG

[3] = target: T3, yeast 20S proteasome β1 subunit (caspase-like) (Saccharomyces cerevisiae, UniProt P38624); assay: X-ray crystal structure ([…] soak; ligand map diffuse at β[…]); fluorogenic inhibition assay with purified yCP
T3 construct: gene PRE3; purified yeast 20S proteasome core particle (yCP); with other subunits of the yeast 20S proteasome core particle (α1–7β1–7β1–7α1–7)
T3 sequence (P38624 20-215): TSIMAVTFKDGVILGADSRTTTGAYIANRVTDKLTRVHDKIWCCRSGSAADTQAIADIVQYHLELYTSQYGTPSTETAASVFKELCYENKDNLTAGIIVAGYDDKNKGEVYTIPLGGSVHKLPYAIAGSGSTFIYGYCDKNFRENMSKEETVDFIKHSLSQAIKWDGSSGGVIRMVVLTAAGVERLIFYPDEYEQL

CC(C)[C@@H]1C(=O)O[C@H]1C(=O)O [compound 1, 3-isopropyl-4-oxo-2-oxetanecarboxylic acid]
IC50 [1]: 60 µM
IC50 [2]: 6.2 µM
IC50 [3]: 625 µM
